Test system: SW1271 complex spheroids with HUVEC/MSC, growth, % test/control
Assay: Anticancer human tumor SW1271 cell line growth inhibition [AhR];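 further: spheroids exposed to agents for 7 days before readout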
Conditions: for IC50: curve of first compound; for viability, T/C: stronger effect = lower value
Outline: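 Complex tumor spheroids co-cultured with HUVEC and human MSC stroma; AhR antagonists tested in combination with standard-of-care and investigational agents. Top concentration at or near clinical Cmax (else 10 microM), half-log dilutions; growth expressed as percent test/control.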

[1] = second compound 0.1 µM, first compound 0.0316 µM
[2] = second compound 0.1 µM, first compound 0.1 µM
[3] = second compound 0.1 µM, first compound 0.316 µM
[4] = second compound 0.1 µM, first compound 1 µM
[5] = second compound 0.316 µM, first compound 0.0316 µM
[6] = second compound 0.316 µM, first compound 0.1 µM
[7] = second compound 0.316 µM, first compound 0.316 µM
[8] = second compound 0.316 µM, first compound 1 µM
[9] = second compound 1 µM, first compound 0.0316 µM
[10] = second compound 1 µM, first compound 0.1 µM
[11] = second compound 1 µM, first compound 0.316 µM
[12] = second compound 1 µM, first compound 1 µM
[13] = second compound 3.16 µM, first compound 0.0316 µM
[14] = second compound 3.16 µM, first compound 0.1 µM
[15] = second compound 3.16 µM, first compound 0.316 µM
[16] = second compound 3.16 µM, first compound 1 µM
[17] = second compound 10 µM, first compound 0.0316 µM
[18] = second compound 10 µM, first compound 0.1 µM
[19] = second compound 10 µM, first compound 0.316 µM
[20] = second compound 10 µM, first compound 1 µM
[21] = second compound 0.1 µM, first compound 3.16 µM
[22] = second compound 0.1 µM, first compound 10 µM
[23] = second compound 0.316 µM, first compound 3.16 µM
[24] = second compound 0.316 µM, first compound 10 µM
[25] = second compound 1 µM, first compound 3.16 µM
[26] = second compound 1 µM, first compound 10 µM
[27] = second compound 3.16 µM, first compound 3.16 µM
[28] = second compound 3.16 µM, first compound 10 µM
[29] = second compound 10 µM, first compound 3.16 µM
[30] = second compound 10 µM, first compound 10 µM
[31] = second compound 0.1 µM, first compound 0.00949 µM
[32] = second compound 0.1 µM, first compound 0.03 µM
[33] = second compound 0.1 µM, first compound 0.0949 µM
[34] = second compound 0.1 µM, first compound 0.3 µM
[35] = second compound 0.316 µM, first compound 0.00949 µM
[36] = second compound 0.316 µM, first compound 0.03 µM
[37] = second compound 0.316 µM, first compound 0.0949 µM
[38] = second compound 0.316 µM, first compound 0.3 µM
[39] = second compound 1 µM, first compound 0.00949 µM
[40] = second compound 1 µM, first compound 0.03 µM
[41] = second compound 1 µM, first compound 0.0949 µM
[42] = second compound 1 µM, first compound 0.3 µM
[43] = second compound 3.16 µM, first compound 0.00949 µM
[44] = second compound 3.16 µM, first compound 0.03 µM
[45] = second compound 3.16 µM, first compound 0.0949 µM
[46] = second compound 3.16 µM, first compound 0.3 µM
[47] = second compound 10 µM, first compound 0.00949 µM
[48] = second compound 10 µM, first compound 0.03 µM
[49] = second compound 10 µM, first compound 0.0949 µM
[50] = second compound 10 µM, first compound 0.3 µM

Compound: CC1COCCN1c1cc(-c2ccnn2C)c2ccnc(-c3ccn[nH]3)c2n1 (stereo not given) + Cc1ccccc1N=Nc1ccc(NC(=O)c2ccnn2C)c(C)c1
- IC50 (second compound 0.1 µM): 683 nM
- IC50 (second compound 0.316 µM): > 1000 nM
- IC50 (second compound 1 µM): > 1000 nM
- IC50 (second compound 3.16 µM): > 1000 nM
- IC50 (second compound 10 µM): > 1000 nM
- viability, T/C (second compound 0.1 µM, first compound 0.00316 µM): 98.9%
- viability, T/C (second compound 0.1 µM, first compound 0.01 µM): 97.4%
- viability, T/C [1]: 88.5%
- viability, T/C [2]: 72.7%
- viability, T/C [3]: 61.6%
- viability, T/C [4]: 44.6%
- viability, T/C (second compound 0.316 µM, first compound 0.00316 µM): 102%
- viability, T/C (second compound 0.316 µM, first compound 0.01 µM): 126%
- viability, T/C [5]: 92.7%
- viability, T/C [6]: 81.2%
- viability, T/C [7]: 74.8%
- viability, T/C [8]: 49.2%
- viability, T/C (second compound 1 µM, first compound 0.00316 µM): 112%
- viability, T/C (second compound 1 µM, first compound 0.01 µM): 96.9%
- viability, T/C [9]: 106%
- viability, T/C [10]: 83.6%
- viability, T/C [11]: 85.3%
- viability, T/C [12]: 49.6%
- viability, T/C (second compound 3.16 µM, first compound 0.00316 µM): 100%
- viability, T/C (second compound 3.16 µM, first compound 0.01 µM): 102%
- viability, T/C [13]: 85.8%
- viability, T/C [14]: 57%
- viability, T/C [15]: 63.5%
- viability, T/C [16]: 63%
- viability, T/C (second compound 10 µM, first compound 0.00316 µM): 93.3%
- viability, T/C (second compound 10 µM, first compound 0.01 µM): 95%
- viability, T/C [17]: 99.9%
- viability, T/C [18]: 72.3%
- viability, T/C [19]: 55.1%
- viability, T/C [20]: 58.2%

Compound: CC1COCCN1c1cc(C2(S(C)(=N)=O)CC2)nc(-c2ccnc3[nH]ccc23)n1 (stereo not given) + Cc1ccccc1N=Nc1ccc(NC(=O)c2ccnn2C)c(C)c1
- IC50 (second compound 0.1 µM): > 10000 nM
- IC50 (second compound 0.316 µM): > 10000 nM
- IC50 (second compound 1 µM): > 10000 nM
- IC50 (second compound 3.16 µM): > 10000 nM
- IC50 (second compound 10 µM): > 10000 nM
- viability, T/C [1]: 87.6%
- viability, T/C [2]: 105%
- viability, T/C [3]: 90.8%
- viability, T/C [4]: 119%
- viability, T/C [21]: 89.4%
- viability, T/C [22]: 52.5%
- viability, T/C [5]: 100%
- viability, T/C [6]: 95.2%
- viability, T/C [7]: 96.9%
- viability, T/C [8]: 106%
- viability, T/C [23]: 67.6%
- viability, T/C [24]: 58.8%
- viability, T/C [9]: 96.8%
- viability, T/C [10]: 111%
- viability, T/C [11]: 106%
- viability, T/C [12]: 89.6%
- viability, T/C [25]: 90.4%
- viability, T/C [26]: 56.7%
- viability, T/C [13]: 97.5%
- viability, T/C [14]: 112%
- viability, T/C [15]: 104%
- viability, T/C [16]: 96.7%
- viability, T/C [27]: 70%
- viability, T/C [28]: 61.1%
- viability, T/C [17]: 102%
- viability, T/C [18]: 91.8%
- viability, T/C [19]: 104%
- viability, T/C [20]: 95.4%
- viability, T/C [29]: 68.1%
- viability, T/C [30]: 54.9%

Compound: COc1ccc([C@@H](O)c2cc(-c3ncnc4cc(N5CCOCC5)ccc34)c(F)cc2Cl)nn1 + Cc1ccccc1N=Nc1ccc(NC(=O)c2ccnn2C)c(C)c1
- IC50 (second compound 0.1 µM): 2220 nM
- IC50 (second compound 0.316 µM): 2550 nM
- IC50 (second compound 1 µM): 5040 nM
- IC50 (second compound 3.16 µM): 4750 nM
- IC50 (second compound 10 µM): 1980 nM
- viability, T/C [1]: 97.2%
- viability, T/C [2]: 98.1%
- viability, T/C [3]: 87.2%
- viability, T/C [4]: 58.6%
- viability, T/C [21]: 50%
- viability, T/C [22]: 33.9%
- viability, T/C [5]: 82.9%
- viability, T/C [6]: 94.2%
- viability, T/C [7]: 77.6%
- viability, T/C [8]: 65%
- viability, T/C [23]: 47.6%
- viability, T/C [24]: 33.5%
- viability, T/C [9]: 94.6%
- viability, T/C [10]: 89%
- viability, T/C [11]: 86.2%
- viability, T/C [12]: 68.1%
- viability, T/C [25]: 57.9%
- viability, T/C [26]: 40.4%
- viability, T/C [13]: 84.5%
- viability, T/C [14]: 80.5%
- viability, T/C [15]: 70.6%
- viability, T/C [16]: 68.9%
- viability, T/C [27]: 59.2%
- viability, T/C [28]: 36.8%
- viability, T/C [17]: 89.5%
- viability, T/C [18]: 73.5%
- viability, T/C [19]: 77.7%
- viability, T/C [20]: 60.9%
- viability, T/C [29]: 41.2%
- viability, T/C [30]: 37.4%

Compound: Nc1ncn(C2CC(O)C(CO)S2)c(=O)n1 (stereo not given) + Cc1ccccc1N=Nc1ccc(NC(=O)c2ccnn2C)c(C)c1
- IC50 (second compound 0.1 µM): > 300 nM
- IC50 (second compound 0.316 µM): > 300 nM
- IC50 (second compound 1 µM): > 300 nM
- IC50 (second compound 3.16 µM): > 300 nM
- IC50 (second compound 10 µM): > 300 nM
- viability, T/C (second compound 0.1 µM, first compound 0.000949 µM): 120%
- viability, T/C (second compound 0.1 µM, first compound 0.003 µM): 102%
- viability, T/C [31]: 87.8%
- viability, T/C [32]: 102%
- viability, T/C [33]: 95.4%
- viability, T/C [34]: 79.5%
- viability, T/C (second compound 0.316 µM, first compound 0.000949 µM): 101%
- viability, T/C (second compound 0.316 µM, first compound 0.003 µM): 94.4%
- viability, T/C [35]: 83.6%
- viability, T/C [36]: 89.2%
- viability, T/C [37]: 89.9%
- viability, T/C [38]: 78.6%
- viability, T/C (second compound 1 µM, first compound 0.000949 µM): 87.9%
- viability, T/C (second compound 1 µM, first compound 0.003 µM): 96%
- viability, T/C [39]: 109%
- viability, T/C [40]: 94.6%
- viability, T/C [41]: 76.9%
- viability, T/C [42]: 99.9%
- viability, T/C (second compound 3.16 µM, first compound 0.000949 µM): 81.2%
- viability, T/C (second compound 3.16 µM, first compound 0.003 µM): 115%
- viability, T/C [43]: 116%
- viability, T/C [44]: 88.7%
- viability, T/C [45]: 85.4%
- viability, T/C [46]: 105%
- viability, T/C (second compound 10 µM, first compound 0.000949 µM): 103%
- viability, T/C (second compound 10 µM, first compound 0.003 µM): 95.3%
- viability, T/C [47]: 86%
- viability, T/C [48]: 92.7%
- viability, T/C [49]: 85%
- viability, T/C [50]: 77.2%

Compound: O=C(C=Cn1cnc(-c2cc(C(F)(F)F)cc(C(F)(F)F)c2)n1)NNc1cnccn1 + Cc1ccccc1N=Nc1ccc(NC(=O)c2ccnn2C)c(C)c1
- IC50 (second compound 0.1 µM): 2020 nM
- IC50 (second compound 0.316 µM): 1390 nM
- IC50 (second compound 1 µM): 2470 nM
- IC50 (second compound 3.16 µM): > 3000 nM
- IC50 (second compound 10 µM): > 3000 nM
- viability, T/C [31]: 87%
- viability, T/C [32]: 111%
- viability, T/C [33]: 86.1%
- viability, T/C [34]: 64.5%
- viability, T/C (second compound 0.1 µM, first compound 0.949 µM): 54.1%
- viability, T/C (second compound 0.1 µM, first compound 3 µM): 46.7%
- viability, T/C [35]: 78.9%
- viability, T/C [36]: 86.2%
- viability, T/C [37]: 84%
- viability, T/C [38]: 64.8%
- viability, T/C (second compound 0.316 µM, first compound 0.949 µM): 56%
- viability, T/C (second compound 0.316 µM, first compound 3 µM): 42.8%
- viability, T/C [39]: 111%
- viability, T/C [40]: 85.7%
- viability, T/C [41]: 79%
- viability, T/C [42]: 79.2%
- viability, T/C (second compound 1 µM, first compound 0.949 µM): 59.4%
- viability, T/C (second compound 1 µM, first compound 3 µM): 45.8%
- viability, T/C [43]: 109%
- viability, T/C [44]: 95.6%
- viability, T/C [45]: 99.7%
- viability, T/C [46]: 61.4%
- viability, T/C (second compound 3.16 µM, first compound 0.949 µM): 64.9%
- viability, T/C (second compound 3.16 µM, first compound 3 µM): 49%
- viability, T/C [47]: 94.8%
- viability, T/C [48]: 93%
- viability, T/C [49]: 107%
- viability, T/C [50]: 71.2%
- viability, T/C (second compound 10 µM, first compound 0.949 µM): 61.4%
- viability, T/C (second compound 10 µM, first compound 3 µM): 45.7%
